The values below come from US4472383A, “Peptide derivatives, their production and use” (Takeda Chemical Industries, Ltd., priority 1982, dated 1984).

The test system of the test is Hypertensive Activity of Angiotensin I. In words: Effect against hypertensive activity of angiotensin I in anesthetized-prepared rats (oral administration). In kind it is in vivo, Male rats (Sprague-Dawley). Conditions: rat, 13.8 μM/kg orally, angiotensin I 300 ng/kg i.v., corrected for angiotensin II response; for Percent Inhibition (%) against Hypertensive Reaction by Angiotensin I After 20 min.: 20 min after administration; for Percent Inhibition (%) against Hypertensive Reaction by Angiotensin I After 60 min.: 60 min after administration; for Percent Inhibition (%) against Hypertensive Reaction by Angiotensin I After 120 min.: 120 min after administration. As for the experimental part: Effect of Present Compounds against Hypertensive Activity of Angiotensin I Male rats (Sprague-Dawley) weighing 250 g to 350 g which were fed under free access to drinking water and feeds were used as experimental animals. The rats were anesthetized with intraperitoneal administration of pentobarbital sodium (50 mg/kg) on the day before the test day and a polyethylene tube was inserted into each of the femoral artery for measurement of blood pressure and the femoral vein for injection of angiotensin I and II, and then the tubes were fixed. […] Then, 13.8 μM/kg of the compound of this invention was administered orally as an aqueous solution or an aqueous gum arabic suspension, and 20, 60 and 120 minutes after the administration, angiotensin I and II were injected repeatedly to trace hypertensive reactions. In calculating the percent inhibition to the hypertensive activity of angiotensin I, the percent inhibitory value was corrected based on the variation with time in the hypertensive reaction by angiotensin II.

The structures appear in SMILES notation.

Turning to `Br.CCOC(=O)[C@H](CCc1ccccc1)N[C@@H](C)C(=O)N(CC(=O)N[C@@H](Cc1ccccc1)C(=O)O)C1Cc2ccccc2C1` [Example 3, N-[1(S)-ethoxycarbonyl-3-phenylpropyl]-L-alanyl-N-(2-indanyl)glycyl-L-phenylalanine hydrobromide], the “Percent Inhibition (%) against Hypertensive Reaction by Angiotensin I After 20 min.” value amounted to 67%, the “Percent Inhibition (%) against Hypertensive Reaction by Angiotensin I After 60 min.” value is on record as 73% and the “Percent Inhibition (%) against Hypertensive Reaction by Angiotensin I After 120 min.” value stood at 77%.
In the same order, the values of `CCCCOC(=O)[C@H](CCc1ccccc1)N[C@@H](C)C(=O)N(CC(=O)N[C@@H](Cc1ccccc1)C(=O)O)C1CCCC1.Cl` [Example 6, N-[1(S)-butoxycarbonyl-3-phenylpropyl]-L-alanyl-N-cyclopentylglycyl-L-phenylalanine hydrochloride] are 72%, 84% and 72%.
